Laboratory results as given in ChEMBL document CHEMBL1255531, “Utilization of a nitrogen-sulfur nonbonding interaction in the design of new 2-aminothiazol-5-yl-pyrimidines as p38α MAP kinase inhibitors” (Bioorg Med Chem Lett, 2010).
Values after ≈ are worked out from the molar mass of the structure shown. Blank lines part the entries; values can stand above or below the molecule they belong to. Active and inactive are the calls of the source. The calls are words filed in the database; no cut-off is given here.

Legend:
[1] = target: Mitogen-activated protein kinase 14 (Homo sapiens, UniProt Q16539); assay: Inhibition of bacterially expressed activated p38alpha pre-incubated 10 mins measured after 45 mins by scintillation counting
Mitogen-activated protein kinase 14, sequence (Q16539 whole entry): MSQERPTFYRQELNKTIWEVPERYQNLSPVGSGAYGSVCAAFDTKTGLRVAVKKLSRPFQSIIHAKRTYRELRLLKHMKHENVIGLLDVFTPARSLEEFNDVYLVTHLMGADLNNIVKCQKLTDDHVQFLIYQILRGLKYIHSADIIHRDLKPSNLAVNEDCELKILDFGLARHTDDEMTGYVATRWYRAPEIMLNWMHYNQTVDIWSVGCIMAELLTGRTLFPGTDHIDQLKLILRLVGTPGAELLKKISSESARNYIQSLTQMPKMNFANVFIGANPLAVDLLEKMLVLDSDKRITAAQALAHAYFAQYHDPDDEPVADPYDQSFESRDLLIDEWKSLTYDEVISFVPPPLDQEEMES

PBMC = assay: Antiinflammatory activity in human PBMC assessed as inhibition of LPS-induced TNFalpha production after 6 hrs by ELISA; type: functional, cell-based
LIM domain kinase 1 = LIM domain kinase 1 (Homo sapiens, UniProt P53667); assay: Inhibition of LIMK1
LIM domain kinase 1, sequence (P53667 whole entry, the tested form may be a part): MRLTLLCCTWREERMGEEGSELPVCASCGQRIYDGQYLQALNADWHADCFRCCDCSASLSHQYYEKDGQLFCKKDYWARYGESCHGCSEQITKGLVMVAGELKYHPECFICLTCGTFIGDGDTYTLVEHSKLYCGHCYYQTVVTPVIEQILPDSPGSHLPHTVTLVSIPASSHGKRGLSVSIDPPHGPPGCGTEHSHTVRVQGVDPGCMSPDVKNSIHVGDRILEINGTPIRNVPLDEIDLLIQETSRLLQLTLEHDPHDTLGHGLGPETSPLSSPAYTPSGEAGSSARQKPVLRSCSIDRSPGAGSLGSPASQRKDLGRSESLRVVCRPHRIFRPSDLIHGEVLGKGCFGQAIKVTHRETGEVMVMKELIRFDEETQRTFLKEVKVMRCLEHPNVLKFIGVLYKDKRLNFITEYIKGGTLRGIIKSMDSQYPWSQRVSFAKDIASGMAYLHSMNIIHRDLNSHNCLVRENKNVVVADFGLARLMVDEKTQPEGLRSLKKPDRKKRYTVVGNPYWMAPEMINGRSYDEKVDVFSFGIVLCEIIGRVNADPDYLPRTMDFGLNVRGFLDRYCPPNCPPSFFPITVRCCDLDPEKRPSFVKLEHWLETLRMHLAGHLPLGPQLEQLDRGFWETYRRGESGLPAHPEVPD

LIM domain kinase 2 = LIM domain kinase 2 (Homo sapiens, UniProt P53671); assay: Inhibition of LIMK2
LIM domain kinase 2, sequence (P53671 whole entry, the tested form may be a part): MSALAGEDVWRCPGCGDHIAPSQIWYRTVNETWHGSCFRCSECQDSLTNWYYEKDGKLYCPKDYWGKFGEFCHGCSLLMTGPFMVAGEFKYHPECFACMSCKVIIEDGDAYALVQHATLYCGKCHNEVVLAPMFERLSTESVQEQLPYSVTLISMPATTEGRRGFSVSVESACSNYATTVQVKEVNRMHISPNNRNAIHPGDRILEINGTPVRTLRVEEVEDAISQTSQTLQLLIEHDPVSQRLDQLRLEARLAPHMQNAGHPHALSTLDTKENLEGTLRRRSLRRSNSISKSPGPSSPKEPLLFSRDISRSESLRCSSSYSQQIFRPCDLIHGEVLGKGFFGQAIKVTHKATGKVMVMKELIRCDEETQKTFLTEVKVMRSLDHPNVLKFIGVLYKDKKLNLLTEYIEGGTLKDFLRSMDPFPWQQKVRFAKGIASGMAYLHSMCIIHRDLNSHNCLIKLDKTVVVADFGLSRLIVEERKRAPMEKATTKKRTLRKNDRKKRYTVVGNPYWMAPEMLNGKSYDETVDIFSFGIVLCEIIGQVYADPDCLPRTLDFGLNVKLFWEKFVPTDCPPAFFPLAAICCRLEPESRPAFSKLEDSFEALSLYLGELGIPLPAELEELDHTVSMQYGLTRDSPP

[2] = Aqueous solubility of the compound at pH 6.5; type: physicochemical; details: buffer
[3] = Selectivity ratio of IC50 for p38alpha to IC50 for LIMK1
[4] = Selectivity ratio of IC50 for p38alpha to IC50 for LIMK2
[5] = target: Tyrosine-protein kinase ABL1 (Homo sapiens) (UniProt P00519); assay: Inhibition of ABL1 at 10 uM relative to control
[6] = target: 5'-AMP-activated protein kinase catalytic subunit alpha-1 (Homo sapiens) (UniProt Q13131); assay: Inhibition of AMPKA1 at 10 uM relative to control
[7] = target: Aurora kinase A (Homo sapiens) (UniProt O14965); assay: Inhibition of aurora A at 10 uM relative to control
[8] = target: Aurora kinase C (Homo sapiens) (UniProt Q9UQB9); assay: Inhibition of aurora C at 10 uM relative to control
[9] = target: Calcium/calmodulin-dependent protein kinase type 1 (Homo sapiens) (UniProt Q14012); assay: Inhibition of CAMK1A at 10 uM relative to control
[10] = target: Calcium/calmodulin-dependent protein kinase type 1D (Homo sapiens) (UniProt Q8IU85); assay: Inhibition of CAMK1D at 10 uM relative to control
[11] = target: Cyclin-dependent kinase 2 (Homo sapiens) (UniProt P24941); assay: Inhibition of CDK2 at 10 uM relative to control
[12] = target: Casein kinase I isoform epsilon (Homo sapiens) (UniProt P49674); assay: Inhibition of CK1E at 10 uM relative to control
[13] = target: Dual specificity protein kinase CLK1 (Homo sapiens) (UniProt P49759); assay: Inhibition of CLK1 at 10 uM relative to control
[14] = target: Tyrosine-protein kinase CSK (Homo sapiens) (UniProt P41240); assay: Inhibition of CSK at 10 uM relative to control
[15] = target: Death-associated protein kinase 2 (Homo sapiens) (UniProt Q9UIK4); assay: Inhibition of DAPK2 at 10 uM relative to control
[16] = target: Epidermal growth factor receptor (Homo sapiens) (UniProt P00533); assay: Inhibition of EGFR at 10 uM relative to control
[17] = target: Ephrin type-A receptor 2 (Homo sapiens) (UniProt P29317); assay: Inhibition of EPHA2 at 10 uM relative to control
[18] = target: Ephrin type-B receptor 4 (Homo sapiens) (UniProt P54760); assay: Inhibition of EPHB4 at 10 uM relative to control
[19] = target: Fibroblast growth factor receptor 1 (Homo sapiens) (UniProt P11362); assay: Inhibition of FGF1R at 10 uM relative to control
Fibroblast growth factor receptor 1 (Homo sapiens), sequence (P11362 22-822 limits assumed): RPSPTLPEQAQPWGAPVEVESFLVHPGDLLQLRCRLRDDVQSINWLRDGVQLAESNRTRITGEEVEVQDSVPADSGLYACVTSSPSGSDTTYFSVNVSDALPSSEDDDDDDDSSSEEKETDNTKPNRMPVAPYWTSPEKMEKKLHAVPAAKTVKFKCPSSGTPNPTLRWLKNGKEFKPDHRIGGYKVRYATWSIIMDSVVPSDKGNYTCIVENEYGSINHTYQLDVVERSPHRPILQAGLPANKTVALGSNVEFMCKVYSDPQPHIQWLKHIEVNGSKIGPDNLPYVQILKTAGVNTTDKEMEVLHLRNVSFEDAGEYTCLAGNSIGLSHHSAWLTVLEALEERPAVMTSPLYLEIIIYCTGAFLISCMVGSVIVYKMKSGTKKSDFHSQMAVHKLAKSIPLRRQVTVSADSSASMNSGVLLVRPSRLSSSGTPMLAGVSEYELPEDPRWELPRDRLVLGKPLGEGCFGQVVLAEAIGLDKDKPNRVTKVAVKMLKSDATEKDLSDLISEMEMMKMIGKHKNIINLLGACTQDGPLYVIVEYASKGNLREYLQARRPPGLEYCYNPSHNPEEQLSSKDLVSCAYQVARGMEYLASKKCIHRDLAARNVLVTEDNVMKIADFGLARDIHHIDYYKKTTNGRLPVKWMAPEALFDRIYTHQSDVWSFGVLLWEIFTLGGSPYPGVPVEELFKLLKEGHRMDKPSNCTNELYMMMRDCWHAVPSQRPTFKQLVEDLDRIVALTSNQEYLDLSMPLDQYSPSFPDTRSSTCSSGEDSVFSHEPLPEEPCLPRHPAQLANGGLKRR

[20] = target: Receptor-type tyrosine-protein kinase FLT3 (Homo sapiens) (UniProt P36888); assay: Inhibition of FLT3 at 10 uM relative to control
[21] = target: Cyclin-G-associated kinase (Homo sapiens) (UniProt O14976); assay: Inhibition of GAK at 10 uM relative to control
[22] = target: Insulin-like growth factor 1 receptor (Homo sapiens) (UniProt P08069); assay: Inhibition of IGF1R at 10 uM relative to control
[23] = target: Insulin receptor (Homo sapiens) (UniProt P06213); assay: Inhibition of INSR at 10 uM relative to control
[24] = target: Vascular endothelial growth factor receptor 2 (Homo sapiens) (UniProt P35968); assay: Inhibition of KDR at 10 uM relative to control
[25] = target: Mitogen-activated protein kinase kinase kinase 4 (Homo sapiens) (UniProt Q9Y6R4); assay: Inhibition of MAP3K4 at 10 uM relative to control
[26] = target: Serine/threonine-protein kinase MARK2 (Homo sapiens) (UniProt Q7KZI7); assay: Inhibition of MARK2 at 10 uM relative to control
[27] = target: MAP kinase-interacting serine/threonine-protein kinase 2 (Homo sapiens) (UniProt Q9HBH9); assay: Inhibition of MNK2 at 10 uM relative to control
[28] = target: Serine/threonine-protein kinase Nek2 (Homo sapiens) (UniProt P51955); assay: Inhibition of NEK2 at 10 uM relative to control
[29] = target: Serine/threonine-protein kinase PAK 1 (Homo sapiens) (UniProt Q13153); assay: Inhibition of PAK1 at 10 uM relative to control
[30] = target: Serine/threonine-protein kinase PAK 4 (Homo sapiens) (UniProt O96013); assay: Inhibition of PAK4 at 10 uM relative to control
[31] = target: Serine/threonine-protein kinase PAK 5 (Homo sapiens) (UniProt Q9P286); assay: Inhibition of PAK5 at 10 uM relative to control
[32] = target: Phosphorylase b kinase gamma catalytic chain, skeletal muscle/heart isoform (Homo sapiens) (UniProt Q16816); assay: Inhibition of PHKG1 at 10 uM relative to control
[33] = target: Serine/threonine-protein kinase pim-1 (Homo sapiens) (UniProt P11309); assay: Inhibition of PIM1 at 10 uM relative to control
[34] = target: Proto-oncogene tyrosine-protein kinase Src (Homo sapiens) (UniProt P12931); assay: Inhibition of SRC at 10 uM relative to control
[35] = target: Serine/threonine-protein kinase 16 (Homo sapiens) (UniProt O75716); assay: Inhibition of STK16 at 10 uM relative to control
[36] = target: Tyrosine-protein kinase SYK (Homo sapiens) (UniProt P43405); assay: Inhibition of SYK at 10 uM relative to control
[37] = target: Angiopoietin-1 receptor (Homo sapiens) (UniProt Q02763); assay: Inhibition of TIE2 at 10 uM relative to control
[38] = target: High affinity nerve growth factor receptor (Homo sapiens) (UniProt P04629); assay: Inhibition of TRKA at 10 uM relative to control
High affinity nerve growth factor receptor (Homo sapiens), sequence (P04629 33-796 limits assumed): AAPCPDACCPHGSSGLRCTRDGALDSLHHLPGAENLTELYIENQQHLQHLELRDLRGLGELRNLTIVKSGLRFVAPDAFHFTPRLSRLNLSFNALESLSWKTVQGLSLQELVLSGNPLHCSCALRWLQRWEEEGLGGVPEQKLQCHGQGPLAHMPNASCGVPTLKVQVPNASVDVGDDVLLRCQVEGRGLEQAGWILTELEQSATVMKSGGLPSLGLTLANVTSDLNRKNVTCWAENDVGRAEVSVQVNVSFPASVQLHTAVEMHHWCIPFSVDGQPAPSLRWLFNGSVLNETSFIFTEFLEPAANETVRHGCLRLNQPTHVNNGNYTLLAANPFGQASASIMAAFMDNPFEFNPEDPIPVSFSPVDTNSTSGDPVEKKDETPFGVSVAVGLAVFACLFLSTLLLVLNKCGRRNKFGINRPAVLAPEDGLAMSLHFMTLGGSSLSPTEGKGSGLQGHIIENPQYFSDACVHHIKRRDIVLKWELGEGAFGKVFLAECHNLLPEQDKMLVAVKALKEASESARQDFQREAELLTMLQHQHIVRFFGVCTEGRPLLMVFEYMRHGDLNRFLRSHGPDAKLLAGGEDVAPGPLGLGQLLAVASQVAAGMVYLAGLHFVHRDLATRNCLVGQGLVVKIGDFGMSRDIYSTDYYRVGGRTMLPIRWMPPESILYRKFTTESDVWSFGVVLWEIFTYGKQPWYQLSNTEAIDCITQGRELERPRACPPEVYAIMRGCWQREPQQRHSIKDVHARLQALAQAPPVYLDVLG

[39] = target: Mitogen-activated protein kinase 8 (Homo sapiens) (UniProt P45983); assay: Inhibition of JNK1 at 10 uM relative to control
[40] = target: Mitogen-activated protein kinase 10 (Homo sapiens) (UniProt P53779); assay: Inhibition of JNK3 at 10 uM relative to control
[41] = target: Mast/stem cell growth factor receptor Kit (Homo sapiens) (UniProt P10721); assay: Inhibition of KIT at 10 uM relative to control
[42] = target: Platelet-derived growth factor receptor beta (Homo sapiens) (UniProt P09619); assay: Inhibition of PDGRB at 10 uM relative to control
Platelet-derived growth factor receptor beta (Homo sapiens), sequence (P09619 whole entry): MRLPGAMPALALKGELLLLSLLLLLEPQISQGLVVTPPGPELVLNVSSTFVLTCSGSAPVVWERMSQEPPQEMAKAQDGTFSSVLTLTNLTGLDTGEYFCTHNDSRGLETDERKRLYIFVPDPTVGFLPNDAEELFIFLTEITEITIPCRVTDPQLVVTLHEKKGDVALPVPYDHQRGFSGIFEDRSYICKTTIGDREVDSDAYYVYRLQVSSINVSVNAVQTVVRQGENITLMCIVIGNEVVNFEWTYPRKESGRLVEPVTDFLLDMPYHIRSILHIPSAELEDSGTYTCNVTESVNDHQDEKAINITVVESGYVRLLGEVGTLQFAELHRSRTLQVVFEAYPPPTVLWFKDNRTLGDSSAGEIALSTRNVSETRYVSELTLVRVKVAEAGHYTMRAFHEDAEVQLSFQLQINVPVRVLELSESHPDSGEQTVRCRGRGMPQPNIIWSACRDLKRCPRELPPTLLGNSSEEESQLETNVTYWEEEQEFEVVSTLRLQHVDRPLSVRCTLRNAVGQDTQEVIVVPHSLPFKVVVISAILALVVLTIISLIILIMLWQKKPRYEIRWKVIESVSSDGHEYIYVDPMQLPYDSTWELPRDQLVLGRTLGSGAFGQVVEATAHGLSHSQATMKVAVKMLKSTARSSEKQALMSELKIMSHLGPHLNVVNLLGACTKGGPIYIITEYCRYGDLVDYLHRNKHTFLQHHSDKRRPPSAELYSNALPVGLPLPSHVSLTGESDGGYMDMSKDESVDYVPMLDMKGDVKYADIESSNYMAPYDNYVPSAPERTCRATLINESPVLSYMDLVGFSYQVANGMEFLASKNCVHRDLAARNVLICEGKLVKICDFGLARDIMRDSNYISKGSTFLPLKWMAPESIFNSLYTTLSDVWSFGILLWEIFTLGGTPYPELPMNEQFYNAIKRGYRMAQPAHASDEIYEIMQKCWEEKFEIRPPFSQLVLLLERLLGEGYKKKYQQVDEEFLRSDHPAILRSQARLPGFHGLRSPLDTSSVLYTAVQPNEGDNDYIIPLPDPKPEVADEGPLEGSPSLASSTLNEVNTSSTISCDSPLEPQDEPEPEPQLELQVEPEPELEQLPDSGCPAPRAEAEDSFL

[43] = target: Myosin light chain kinase 2, skeletal/cardiac muscle (Homo sapiens) (UniProt Q9H1R3); assay: Inhibition of skeletal muscle MLCK at 10 uM relative to control; details: Muscle tissue
Myosin light chain kinase 2, skeletal/cardiac muscle (Homo sapiens), sequence (Q9H1R3 whole entry, looked up): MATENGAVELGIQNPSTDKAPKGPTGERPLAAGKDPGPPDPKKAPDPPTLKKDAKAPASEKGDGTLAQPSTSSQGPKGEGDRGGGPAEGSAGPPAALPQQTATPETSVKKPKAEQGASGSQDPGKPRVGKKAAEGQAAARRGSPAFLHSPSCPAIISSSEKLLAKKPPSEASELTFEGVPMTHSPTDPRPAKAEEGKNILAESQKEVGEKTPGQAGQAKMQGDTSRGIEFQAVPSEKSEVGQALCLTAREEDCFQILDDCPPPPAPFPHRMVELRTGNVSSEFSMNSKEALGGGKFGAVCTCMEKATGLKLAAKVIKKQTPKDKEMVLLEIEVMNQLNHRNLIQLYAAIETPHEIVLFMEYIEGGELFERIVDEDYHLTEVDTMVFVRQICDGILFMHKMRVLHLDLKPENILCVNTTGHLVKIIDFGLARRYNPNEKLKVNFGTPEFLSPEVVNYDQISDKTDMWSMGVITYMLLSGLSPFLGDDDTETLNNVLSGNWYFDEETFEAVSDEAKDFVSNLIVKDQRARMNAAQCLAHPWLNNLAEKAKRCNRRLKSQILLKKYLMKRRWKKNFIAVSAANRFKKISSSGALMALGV

Compound: CCCNc1ncc(-c2cc(-c3ccc(OCC)cc3Cl)nc(-c3ccccn3)n2)s1
IC50 [1]: 3940 nM

Compound: CCCNc1ncc(-c2cc(-c3ccccc3Cl)nc(-c3ccccn3)n2)s1
IC50 [1]: 22 nM
IC50 (PBMC): 17 nM

Compound: Clc1ccccc1-c1cc(-c2cnc(NC3CC3)s2)nc(-c2ccccn2)n1
IC50 [1]: 17 nM
IC50 (PBMC): 22 nM

Compound: CC(C)Nc1ncc(-c2cc(-c3ccccc3Cl)nc(N(C)C)n2)s1
IC50 [1]: 573 nM

Compound: CC(C)Nc1ncc(-c2cc(-c3ccccc3Cl)nc(N)n2)s1
IC50 [1]: 16 nM
IC50 (PBMC): > 250 nM

Compound: CCCNc1ncc(-c2cc(-c3ccccc3F)nc(C)n2)s1
IC50 [1]: 520 nM

Compound: CCCNc1ncc(-c2cc(-c3ccccc3OCC)nc(-c3ccccn3)n2)s1
IC50 [1]: 859 nM

Compound: Nc1ncc(-c2cc(-c3ccccc3Cl)nc(-c3ccccn3)n2)s1
IC50 [1]: 114 nM

Compound: CC[C@@H](C)Nc1ncc(-c2cc(-c3ccccc3Cl)nc(-c3ccccn3)n2)s1
IC50 [1]: 5 nM
IC50 (PBMC): 13 nM
solubility [2]: < 5 ng/mL

Compound: CCCNc1ncc(-c2cc(-c3ccccc3F)nc(N)n2)s1
IC50 [1]: 225 nM

Compound: CCCNc1ncc(-c2cc(-c3ccccc3F)nc(-c3ccccn3)n2)s1
IC50 [1]: 52 nM
IC50 (PBMC): 62 nM

Compound: CNC(=O)NCc1ccccc1-c1cc(-c2cnc(NC(C)C)s2)nc(NCCN(C)C)n1
IC50 [1]: 2 nM
IC50 (PBMC): 12 nM

Compound: CC(C)Nc1ncc(-c2ccnc(-c3ccccc3Cl)n2)s1
IC50 [1]: 223 nM

Compound: CC(C)Nc1ncc(-c2cc(-c3ccccc3Cl)ncn2)s1
IC50 [1]: 46 nM
IC50 (PBMC): 31 nM

Compound: CCCNc1ncc(-c2cc(-c3ccccc3F)nc(C3CC3)n2)s1
IC50 [1]: > 1000 nM

Compound: CCCNc1ncc(-c2cc(-c3ccc(F)cc3Cl)nc(-c3ccccn3)n2)s1
IC50 [1]: 42 nM
IC50 (PBMC): 17 nM

Compound: CC(C)Nc1ncc(-c2cc(-c3ccccc3Cl)nc(NCCO)n2)s1
IC50 [1]: 8 nM
IC50 (PBMC): 8 nM

Compound: CCNC(=O)NCc1ccccc1-c1cc(-c2cnc(NC(C)C)s2)nc(NCCN(C)C)n1
IC50 (PBMC): 3 nM
solubility [2]: 5940 ng/mL (≈ 12.3 µM)
Selectivity ratio [3]: > 10000
Selectivity ratio [4]: > 10000
inhibition [5]: inactive
inhibition [6]: inactive
inhibition [7]: inactive
inhibition [8]: inactive
inhibition [9]: inactive
inhibition [10]: inactive
inhibition [11]: inactive
inhibition [12]: inactive
inhibition [13]: inactive
inhibition [14]: inactive
inhibition [15]: inactive
inhibition [16]: inactive
inhibition [17]: inactive
inhibition [18]: inactive
inhibition [19]: inactive
inhibition [20]: inactive
inhibition [21]: inactive
inhibition [22]: inactive
inhibition [23]: inactive
inhibition [24]: inactive
inhibition [25]: inactive
inhibition [26]: inactive
inhibition [27]: inactive
inhibition [28]: inactive
inhibition [29]: inactive
inhibition [30]: inactive
inhibition [31]: inactive
inhibition [32]: inactive
inhibition [33]: inactive
inhibition [34]: inactive
inhibition [35]: inactive
inhibition [36]: inactive
inhibition [37]: inactive
inhibition [38]: inactive
inhibition [39]: 24.9%
inhibition [40]: 0.2%
inhibition [41]: 14.5%
inhibition [42]: 11.3%
inhibition [43]: inactive

Compound: CC[C@H](C)Nc1ncc(-c2cc(-c3ccccc3Cl)nc(-c3ccccn3)n2)s1
IC50 [1]: 8 nM
IC50 (PBMC): 31 nM
solubility [2]: < 5 ng/mL

Second part, led by results:

IC50 [1]: 314 nM
Compound: CCCNc1ncc(-c2ccnc(-c3ccccn3)n2)s1

IC50 [1]: > 1000 nM
Compound: CCCNc1ncc(-c2ccnc(C3CC3)n2)s1

IC50 [1]: 52 nM
Compound: CCCNc1ncc(-c2cc(-c3ccc(F)cc3)nc(-c3ccccn3)n2)s1

IC50 [1]: 6 nM
Compound: CC(C)Nc1ncc(-c2cc(-c3ccccc3Cl)nc(NCC(O)CO)n2)s1 (stereo not given)
IC50 (PBMC): 11 nM

IC50 [1]: 5 nM
IC50 (LIM domain kinase 1): 4.01 nM
IC50 (LIM domain kinase 2): 3.05 nM
solubility [2]: 994 ng/mL (≈ 2.38 µM)
Compound: CC(C)Nc1ncc(-c2cc(-c3ccccc3Cl)nc(NCCN(C)C)n2)s1
IC50 (PBMC): 1 nM

IC50 [1]: 16 nM
Compound: CC(C)Nc1ncc(-c2cc(-c3ccccc3CNC(=O)NC3CC3)nc(NCCN(C)C)n2)s1
IC50 (PBMC): 11 nM

IC50 [1]: 17 nM
Compound: CCNc1ncc(-c2cc(-c3ccccc3Cl)nc(-c3ccccn3)n2)s1
IC50 (PBMC): 119 nM

IC50 [1]: 16 nM
Compound: Clc1ccccc1-c1cc(-c2cnc(NC3CCC3)s2)nc(-c2ccccn2)n1
IC50 (PBMC): 28 nM

IC50 [1]: 4 nM
IC50 (LIM domain kinase 1): 252 nM
IC50 (LIM domain kinase 2): 362 nM
solubility [2]: < 5 ng/mL
Compound: CC(C)Nc1ncc(-c2cc(-c3ccccc3Cl)nc(-c3ccccn3)n2)s1
IC50 (PBMC): 21 nM

IC50 [1]: > 30000 nM
Compound: CCCNc1ncc(-c2ccnc(-c3ccccc3F)n2)s1
